Test results published in paper PMC10946732.
Where two headings read alike, the source gives them in different places.

Legend:
[1] = Two-component stapling: SNAr of two Cys thiolates (C-S bonds) on para-C-F of 5,10,15,20-tetrakis(pentafluorophenyl)porphyrin (2), 1 equiv; Cs2CO3 8 equiv, TCEP 4 equiv, N2; conditions: the molecule shown is the open-chain precursor, DMSO (dry), 3.3 mM, 25.0 °C, 2.0 h
[2] = the molecule shown is the open-chain precursor; 42-membered ring

CC[C@H](C)[C@H](NC(=O)[C@H](Cc1ccc(O)cc1)NC(=O)CNC(=O)[C@@H](NC(=O)[C@@H](NC(=O)[C@H](CSc1c(F)c(F)c(-c2c3nc(c(-c4c(F)c(F)c(F)c(F)c4F)c4ccc([nH]4)c(-c4c(F)c(F)c(F)c(F)c4F)c4nc(c(-c5c(F)c(F)c(F)c(F)c5F)c5ccc2[nH]5)C=C4)C=C3)c(F)c1F)NC(=O)[C@@H](N)CC(N)=O)C(C)C)C(C)C)C(=O)NCC(=O)N[C@@H](CCC(=O)O)C(=O)N[C@@H](CCCNC(=N)N)C(=O)N[C@@H](CS)C(=O)N[C@@H](CCC(N)=O)C(N)=O [H-Asn-Cys-Val-Val-Gly-Tyr-Ile-Gly-Glu-Arg-Cys-Gln-NH2]
ring closure, conversion by HPLC ([1]; 45-membered ring): 36%

CC(C)C[C@H](NC(=O)[C@H](C)NC(=O)[C@@H](NC(=O)[C@H](CCC(=O)O)NC(=O)[C@@H]1CCCN1C(=O)[C@H](C)NC(=O)[C@H](CCCCN)NC(=O)[C@@H](N)CSc1c(F)c(F)c(-c2c3nc(c(-c4c(F)c(F)c(F)c(F)c4F)c4ccc([nH]4)c(-c4c(F)c(F)c(F)c(F)c4F)c4nc(c(-c5c(F)c(F)c(F)c(F)c5F)c5ccc2[nH]5)C=C4)C=C3)c(F)c1F)[C@@H](C)O)C(=O)N[C@@H](CS)C(N)=O [H-Cys-Lys-Ala-Pro-Glu-Thr-Ala-Leu-Cys-NH2]
ring closure, conversion by HPLC [2]: 44%

CC[C@H](C)[C@H](NC(=O)[C@H](CCCCN)NC(=O)CNC(=O)[C@H](CC(C)C)NC(=O)[C@H](CC(C)C)NC(=O)[C@H](Cc1ccc(O)cc1)NC(=O)CNC(=O)[C@H](C)N)C(=O)N[C@@H](CC(N)=O)C(=O)N[C@@H](CC(C)C)C(=O)N[C@@H](CCCCN)C(=O)N[C@@H](C)C(=O)N[C@@H](CSc1c(F)c(F)c(-c2c3nc(c(-c4c(F)c(F)c(F)c(F)c4F)c4ccc([nH]4)c(-c4c(F)c(F)c(F)c(F)c4F)c4nc(c(-c5c(F)c(F)c(F)c(F)c5F)c5ccc2[nH]5)C=C4)C=C3)c(F)c1F)C(=O)N[C@@H](C)C(=O)N[C@@H](C)C(=O)N[C@@H](CC(C)C)C(=O)N[C@@H](C)C(=O)N[C@@H](CCCCN)C(=O)N[C@@H](CCCCN)C(=O)N[C@@H](CS)C(=O)N[C@@H](CC(C)C)C(N)=O
ring closure, conversion by HPLC ([1]; 39-membered ring): 72%

C[C@H](N)C(=O)N[C@@H](CSc1c(F)c(F)c(-c2c3nc(c(-c4c(F)c(F)c(F)c(F)c4F)c4ccc([nH]4)c(-c4c(F)c(F)c(F)c(F)c4F)c4nc(c(-c5c(F)c(F)c(F)c(F)c5F)c5ccc2[nH]5)C=C4)C=C3)c(F)c1F)C(=O)N[C@H](C(=O)N[C@@H](Cc1c[nH]cn1)C(=O)NCC(=O)N[C@@H](CCC(N)=O)C(=O)N[C@H](C(=O)N[C@@H](CCC(N)=O)C(=O)N[C@@H](CO)C(=O)N[C@@H](CS)C(=O)NCC(N)=O)[C@@H](C)O)[C@@H](C)O [H-Ala-Cys-Thr-His-Gly-Gln-Thr-Gln-Ser-Cys-Gly-NH2]
ring closure, conversion by HPLC ([1]; 42-membered ring): 47% | ring closure, isolated yield ([1]; 42-membered ring): 10%

C[C@H](N)C(=O)N[C@@H](CSc1c(F)c(F)c(-c2c3nc(c(-c4c(F)c(F)c(F)c(F)c4F)c4ccc([nH]4)c(-c4c(F)c(F)c(F)c(F)c4F)c4nc(c(-c5c(F)c(F)c(F)c(F)c5F)c5ccc2[nH]5)C=C4)C=C3)c(F)c1F)C(=O)N[C@@H](C)C(=O)N[C@H](C(=O)NCC(=O)N[C@@H](CO)C(=O)N[C@H](C(=O)N[C@@H](CCC(N)=O)C(=O)N[C@@H](Cc1c[nH]cn1)C(=O)N[C@@H](CCC(N)=O)C(=O)N[C@@H](CS)C(=O)NCC(N)=O)[C@@H](C)O)[C@@H](C)O [H-Ala-Cys-Ala-Thr-Gly-Ser-Thr-Gln-His-Gln-Cys-Gly-NH2]
ring closure, conversion by HPLC ([1]; 45-membered ring): 36%

C[C@H](N)C(=O)N[C@@H](CSc1c(F)c(F)c(-c2c3nc(c(-c4c(F)c(F)c(F)c(F)c4F)c4ccc([nH]4)c(-c4c(F)c(F)c(F)c(F)c4F)c4nc(c(-c5c(F)c(F)c(F)c(F)c5F)c5ccc2[nH]5)C=C4)C=C3)c(F)c1F)C(=O)N[C@@H](Cc1c[nH]cn1)C(=O)N[C@@H](CS)C(=O)NCC(N)=O [H-Ala-Cys-His-Cys-Gly-NH2]
ring closure, conversion by HPLC ([1]; 24-membered ring): 43%

C[C@H](N)C(=O)N[C@@H](CSc1c(F)c(F)c(-c2c3nc(c(-c4c(F)c(F)c(F)c(F)c4F)c4ccc([nH]4)c(-c4c(F)c(F)c(F)c(F)c4F)c4nc(c(-c5c(F)c(F)c(F)c(F)c5F)c5ccc2[nH]5)C=C4)C=C3)c(F)c1F)C(=O)N[C@@H](CS)C(=O)NCC(N)=O [H-Ala-Cys-Cys-Gly-NH2]
ring closure, conversion by HPLC ([1]; 21-membered ring): 0%

C[C@H](N)C(=O)N[C@@H](CSc1c(F)c(F)c(-c2c3nc(c(-c4c(F)c(F)c(F)c(F)c4F)c4ccc([nH]4)c(-c4c(F)c(F)c(F)c(F)c4F)c4nc(c(-c5c(F)c(F)c(F)c(F)c5F)c5ccc2[nH]5)C=C4)C=C3)c(F)c1F)C(=O)N[C@H](C(=O)N[C@@H](CCC(N)=O)C(=O)N[C@@H](Cc1c[nH]cn1)C(=O)N[C@@H](CCC(N)=O)C(=O)N[C@@H](CS)C(=O)NCC(N)=O)[C@@H](C)O [H-Ala-Cys-Thr-Gln-His-Gln-Cys-Gly-NH2]
ring closure, conversion by HPLC ([1]; 33-membered ring): 65% | ring closure, isolated yield ([1]; 33-membered ring): 25%

C[C@H](N)C(=O)N[C@@H](CSc1c(F)c(F)c(-c2c3nc(c(-c4c(F)c(F)c(F)c(F)c4F)c4ccc([nH]4)c(-c4c(F)c(F)c(F)c(F)c4F)c4nc(c(-c5c(F)c(F)c(F)c(F)c5F)c5ccc2[nH]5)C=C4)C=C3)c(F)c1F)C(=O)N[C@@H](CO)C(=O)N[C@H](C(=O)N[C@@H](CCC(N)=O)C(=O)N[C@@H](Cc1c[nH]cn1)C(=O)N[C@@H](CCC(N)=O)C(=O)N[C@@H](CS)C(=O)NCC(N)=O)[C@@H](C)O [H-Ala-Cys-Ser-Thr-Gln-His-Gln-Cys-Gly-NH2]
ring closure, conversion by HPLC ([1]; 36-membered ring): 56% | ring closure, isolated yield ([1]; 36-membered ring): 24%

C[C@H](N)C(=O)N[C@@H](CSc1c(F)c(F)c(-c2c3nc(c(-c4c(F)c(F)c(F)c(F)c4F)c4ccc([nH]4)c(-c4c(F)c(F)c(F)c(F)c4F)c4nc(c(-c5c(F)c(F)c(F)c(F)c5F)c5ccc2[nH]5)C=C4)C=C3)c(F)c1F)C(=O)N[C@H](C(=O)N[C@@H](CO)C(=O)N[C@H](C(=O)N[C@@H](CCC(N)=O)C(=O)N[C@@H](Cc1c[nH]cn1)C(=O)N[C@@H](CCC(N)=O)C(=O)N[C@@H](CS)C(=O)NCC(N)=O)[C@@H](C)O)[C@@H](C)O [H-Ala-Cys-Thr-Ser-Thr-Gln-His-Gln-Cys-Gly-NH2]
ring closure, conversion by HPLC ([1]; 39-membered ring): 50%

C[C@H](N)C(=O)N[C@@H](CSc1c(F)c(F)c(-c2c3nc(c(-c4c(F)c(F)c(F)c(F)c4F)c4ccc([nH]4)c(-c4c(F)c(F)c(F)c(F)c4F)c4nc(c(-c5c(F)c(F)c(F)c(F)c5F)c5ccc2[nH]5)C=C4)C=C3)c(F)c1F)C(=O)N[C@H](C(=O)NCC(=O)N[C@@H](CO)C(=O)N[C@H](C(=O)N[C@@H](CCC(N)=O)C(=O)N[C@@H](Cc1c[nH]cn1)C(=O)N[C@@H](CCC(N)=O)C(=O)N[C@@H](CS)C(=O)NCC(N)=O)[C@@H](C)O)[C@@H](C)O [H-Ala-Cys-Thr-Gly-Ser-Thr-Gln-His-Gln-Cys-Gly-NH2]
ring closure, conversion by HPLC ([1]; 42-membered ring): 46% | ring closure, isolated yield ([1]; 42-membered ring): 18%

C[C@H](N)C(=O)N[C@@H](CSc1c(F)c(F)c(-c2c3nc(c(-c4c(F)c(F)c(F)c(F)c4F)c4ccc([nH]4)c(-c4c(F)c(F)c(F)c(F)c4F)c4nc(c(-c5c(F)c(F)c(F)c(F)c5F)c5ccc2[nH]5)C=C4)C=C3)c(F)c1F)C(=O)N[C@@H](CCC(N)=O)C(=O)N[C@@H](Cc1c[nH]cn1)C(=O)N[C@@H](CCC(N)=O)C(=O)N[C@@H](CS)C(=O)NCC(N)=O [H-Ala-Cys-Gln-His-Gln-Cys-Gly-NH2]
ring closure, conversion by HPLC ([1]; 30-membered ring): 65% | ring closure, isolated yield ([1]; 30-membered ring): 39%

C[C@H](N)C(=O)N[C@@H](CSc1c(F)c(F)c(-c2c3nc(c(-c4c(F)c(F)c(F)c(F)c4F)c4ccc([nH]4)c(-c4c(F)c(F)c(F)c(F)c4F)c4nc(c(-c5c(F)c(F)c(F)c(F)c5F)c5ccc2[nH]5)C=C4)C=C3)c(F)c1F)C(=O)N[C@@H](C)C(=O)N[C@@H](CS)C(=O)NCC(N)=O [H-Ala-Cys-Ala-Cys-Gly-NH2]
ring closure, conversion by HPLC ([1]; 24-membered ring): 6%

C[C@H](N)C(=O)N[C@@H](CSc1c(F)c(F)c(-c2c3nc(c(-c4c(F)c(F)c(F)c(F)c4F)c4ccc([nH]4)c(-c4c(F)c(F)c(F)c(F)c4F)c4nc(c(-c5c(F)c(F)c(F)c(F)c5F)c5ccc2[nH]5)C=C4)C=C3)c(F)c1F)C(=O)N[C@@H](C)C(=O)N[C@H](C(=O)NCC(=O)N[C@@H](CO)C(=O)N[C@H](C(=O)N[C@@H](CCC(N)=O)C(=O)N[C@@H](Cc1c[nH]cn1)C(=O)N[C@@H](CCC(N)=O)C(=O)N[C@@H](C)C(=O)N[C@@H](CS)C(=O)NCC(N)=O)[C@@H](C)O)[C@@H](C)O [H-Ala-Cys-Ala-Thr-Gly-Ser-Thr-Gln-His-Gln-Ala-Cys-Gly-NH2]
ring closure, conversion by HPLC ([1]; 48-membered ring): 35%

C[C@H](N)C(=O)N[C@@H](CSc1c(F)c(F)c(-c2c3nc(c(-c4c(F)c(F)c(F)c(F)c4F)c4ccc([nH]4)c(-c4c(F)c(F)c(F)c(F)c4F)c4nc(c(-c5c(F)c(F)c(F)c(F)c5F)c5ccc2[nH]5)C=C4)C=C3)c(F)c1F)C(=O)N[C@@H](Cc1c[nH]cn1)C(=O)N[C@@H](CCC(N)=O)C(=O)N[C@@H](CS)C(=O)NCC(N)=O [H-Ala-Cys-His-Gln-Cys-Gly-NH2]
ring closure, conversion by HPLC ([1]; 27-membered ring): 65%
